Measured values: ChEMBL document CHEMBL3085759, “Structure-activity relationship (SAR) and preliminary mode of action studies of 3-substituted benzylthioquinolinium iodide as anti-opportunistic infection agents” (Eur J Med Chem, 2013)
In brackets after ≈: the same amount, converted by molar mass. Activity calls are given as the source filed them. The calls are words filed in the database; no cut-off is given here.

Tests used:
[1] = Selectivity index, ratio of TC50 for african green monkey Vero cells to MIC for Aspergillus fumigatus ATCC 204305; format: toxicity, cell-based; settings: read-out: Selectivity Index
[2] = test system: Saccharomyces cerevisiae; test: Antimicrobial activity against Saccharomyces cerevisiae expressing rad52 mutant gene assessed as sensitivity at 50 umol/L by spectrophotometry; format: functional, organism-based
[3] = test system: Saccharomyces cerevisiae; test: Antimicrobial activity against Saccharomyces cerevisiae expressing msh2 mutant gene assessed as sensitivity at 20 umol/L by spectrophotometry; format: functional, organism-based
[4] = test system: Saccharomyces cerevisiae; test: Antimicrobial activity against Saccharomyces cerevisiae expressing snf2 mutant gene assessed as increase in sensitivity at 20 umol/L by spectrophotometry relative to wild type; format: functional
[5] = test system: Saccharomyces cerevisiae; test: Antimicrobial activity against Saccharomyces cerevisiae expressing snf2 mutant gene assessed as sensitivity at 50 umol/L by spectrophotometry; format: functional, organism-based
[6] = test system: Saccharomyces cerevisiae; test: Antimicrobial activity against Saccharomyces cerevisiae expressing rad52 mutant gene assessed as increase in sensitivity at 20 umol/L by spectrophotometry relative to wild type; format: functional
[7] = test system: Saccharomyces cerevisiae; test: Antimicrobial activity against Saccharomyces cerevisiae expressing msh2 mutant gene assessed as increase in sensitivity measured as survival at 20 umol/L by spectrophotometry relative to wild type; format: functional
[8] = test system: Saccharomyces cerevisiae; test: Antimicrobial activity against Saccharomyces cerevisiae expressing ydj1 mutant gene assessed as sensitivity at 50 umol/L by spectrophotometry; format: functional, organism-based
[9] = test system: Saccharomyces cerevisiae; test: Antimicrobial activity against Saccharomyces cerevisiae expressing msh2 mutant gene assessed as sensitivity at 50 umol/L by spectrophotometry; format: functional, organism-based
[10] = test system: Saccharomyces cerevisiae; test: Antimicrobial activity against wild type Saccharomyces cerevisiae assessed as sensitivity at 50 umol/L by spectrophotometry; format: functional, organism-based
[11] = test system: Saccharomyces cerevisiae; test: Antimicrobial activity against Saccharomyces cerevisiae expressing ydj1 mutant gene assessed as sensitivity at 20 umol/L by spectrophotometry; format: functional, organism-based
[12] = test system: Cryptococcus neoformans; test: Antimicrobial activity against Cryptococcus neoformans ATCC 90113 by Alamar blue method; format: functional, organism-based
[13] = test system: Aspergillus fumigatus; test: Antimicrobial activity against Aspergillus fumigatus ATCC 204305 by Alamar blue method; format: functional, organism-based
[14] = test system: Staphylococcus aureus; test: Antimicrobial activity against methicillin-resistant Staphylococcus aureus ATCC 33591 by Alamar blue method; format: functional, organism-based
[15] = test system: Candida albicans; test: Antimicrobial activity against Candida albicans ATCC 90028 by Alamar blue method; format: functional, organism-based
[16] = test system: Pichia kudriavzevii; test: Antimicrobial activity against Candida krusei ATCC 6258 by Alamar blue method; format: functional, organism-based
[17] = test system: Staphylococcus aureus; test: Antimicrobial activity against Staphylococcus aureus ATCC 29213 by Alamar blue method; format: functional, organism-based; settings: Staphylococcus aureus, ATCC 29213; for IC50: read-out: IC50
[18] = test system: Nakaseomyces glabratus; test: Antimicrobial activity against Candida glabrata by Alamar blue method; format: functional, organism-based
[19] = test system: Mycobacterium intracellulare; test: Antimicrobial activity against Mycobacterium intracellulare ATCC 23068 by Alamar blue method; format: functional, organism-based
[20] = Cytotoxicity against african green monkey Vero cells after 48 hrs by Neutral Red dye assay; format: cell-based; settings: chlorocebus sabaeus, read-out: TC50
[21] = test system: Saccharomyces cerevisiae; test: Antimicrobial activity against Saccharomyces cerevisiae expressing msh2 mutant gene assessed as increase in sensitivity at 20 umol/L by spectrophotometry relative to wild type; format: functional
[22] = test system: Pichia kudriavzevii; test: Ratio of fluconazole MFC to compound MFC for Candida krusei ATCC 6258 by Alamar blue method; format: functional
[23] = test system: Pichia kudriavzevii; test: Ratio of amphotericin B IC50 to compound IC50 for Candida krusei ATCC 6258 by Alamar blue method; format: functional
[24] = test system: Saccharomyces cerevisiae; test: Antimicrobial activity against Saccharomyces cerevisiae expressing ydj1 mutant gene assessed as increase in sensitivity at 20 umol/L by spectrophotometry relative to wild type; format: functional
[25] = test system: Cryptococcus neoformans; test: Ratio of amphotericin B IC50 to compound IC50 for Cryptococcus neoformans ATCC 90113 by Alamar blue method; format: functional
[26] = Selectivity index, ratio of TC50 for african green monkey Vero cells to IC50 for Cryptococcus neoformans ATCC 90113; format: toxicity, cell-based; settings: read-out: Selectivity Index
[27] = test system: Saccharomyces cerevisiae; test: Antimicrobial activity against wild type Saccharomyces cerevisiae assessed as increase in sensitivity measured as survival at 20 umol/L by spectrophotometry relative to control; format: functional
[28] = test system: Nakaseomyces glabratus; test: Ratio of fluconazole MFC to compound MFC for Candida glabrata by Alamar blue method; format: functional
[29] = test system: Nakaseomyces glabratus; test: Antimicrobial activity against Candida glabrata at 20 ug/ml by Alamar blue method; format: functional, organism-based
[30] = test system: Vero; test: Cytotoxicity against african green monkey Vero cells at 10 ug/ml after 48 hrs by Neutral Red dye assay; format: cell-based; settings: chlorocebus sabaeus

C[n+]1c2ccccc2cc2[n-]c3ccccc3c21 [CRYPTOLEPINE]
selectivity ratio [1]: < 0.13 | Activity [2]: Active | Activity [3]: inactive | fold change (FC) [4]: 1.7 | Activity [5]: Active | fold change (FC) [6]: 3.5 | Activity [7]: 29% | Activity [8]: Active | Activity [9]: Active | Activity [10]: Active | Activity [11]: inactive | MFC [12]: > 25 µg/mL | MIC [12]: 12.5 µg/mL (≈ 53.8 µM)

Cc1ccc(CSc2cc3ccccc3[n+](CCCCCC3CCCCC3)c2)cc1.[I-]
IC50 [13]: 4.5 µg/mL | MFC [13]: 10 µg/mL | MIC [13]: 10 µg/mL | IC50 [14]: 0.49 µg/mL | MBC [14]: 2.5 µg/mL | MIC [14]: 1.3 µg/mL | IC50 [15]: 1.4 µg/mL | MFC [15]: 5 µg/mL | MIC [15]: 2.5 µg/mL | IC50 [16]: 0.27 µg/mL | MFC [16]: 1.3 µg/mL | MIC [16]: 1.3 µg/mL | MBC [17]: 2.5 µg/mL | MIC [17]: 0.63 µg/mL | IC50 [17]: 0.39 µg/mL | IC50 [18]: 3.1 µg/mL | MFC [18]: 5 µg/mL | MIC [18]: 5 µg/mL | IC50 [19]: 7.5 µg/mL | MBC [19]: 10 µg/mL | MIC [19]: 10 µg/mL | MFC [12]: 0.31 µg/mL | MIC [12]: 0.31 µg/mL | CC50 at 48 h [20]: 6.8 µg/mL

Clc1ccc(CSc2cc3ccccc3[n+](CCCCCC3CCCCC3)c2)cc1.[I-]
fold change (FC) [21]: 1.1 | IC50 [13]: 0.69 µg/mL | MFC [13]: 1.3 µg/mL | MIC [13]: 1.3 µg/mL | IC50 [14]: 0.06 µg/mL | MBC [14]: 0.31 µg/mL | MIC [14]: 0.16 µg/mL | IC50 [15]: 0.33 µg/mL | MFC [15]: 0.63 µg/mL | MIC [15]: 0.63 µg/mL | Ratio IC50 [22]: 310 | Ratio IC50 [23]: 3 | IC50 [16]: 0.07 µg/mL | MFC [16]: 0.16 µg/mL | MIC [16]: 0.16 µg/mL | fold change (FC) [24]: 7.5 | fold change (FC) [4]: 10 | MBC [17]: 0.31 µg/mL | MIC [17]: 0.16 µg/mL | IC50 [17]: 0.05 µg/mL | fold change (FC) [6]: 2.9 | Ratio IC50 [25]: 4 | IC50 [18]: 0.44 µg/mL | MFC [18]: 1.3 µg/mL | MIC [18]: 1.3 µg/mL | IC50 [19]: 1.6 µg/mL | MBC [19]: 2.5 µg/mL | MIC [19]: 2.5 µg/mL | MFC [12]: 0.08 µg/mL | MIC [12]: 0.08 µg/mL | CC50 at 48 h [20]: 1.3 µg/mL | selectivity ratio [26]: 26 | Activity [27]: 31%

[I-].c1ccc2cc(Sc3cc4ccccc4[n+](CCCCCC4CCCCC4)c3)ccc2c1
IC50 [13]: 1.2 µg/mL | MFC [13]: 2.5 µg/mL | MIC [13]: 2.5 µg/mL | IC50 [14]: 0.35 µg/mL | MBC [14]: 2.5 µg/mL | MIC [14]: 0.63 µg/mL | IC50 [15]: 0.42 µg/mL | MFC [15]: 2.5 µg/mL | MIC [15]: 1.3 µg/mL | Ratio [22]: 79 | IC50 [16]: 0.09 µg/mL | MFC [16]: 0.63 µg/mL | MIC [16]: 0.63 µg/mL | MBC [17]: 2.5 µg/mL | MIC [17]: 0.63 µg/mL | IC50 [17]: 0.34 µg/mL | Ratio [28]: 79 | IC50 [18]: 0.87 µg/mL | MFC [18]: 2.5 µg/mL | MIC [18]: 2.5 µg/mL | IC50 [19]: 4.2 µg/mL | MBC [19]: 10 µg/mL | MIC [19]: 5 µg/mL | IC50 [12]: 0.09 µg/mL | MFC [12]: 0.16 µg/mL | MIC [12]: 0.16 µg/mL | selectivity ratio [26]: > 111

OC(Cn1cncn1)(Cn1cncn1)c1ccc(F)cc1F [FLUCONAZOLE]
IC50 [15]: 0.12 µg/mL (≈ 0.392 µM) | MFC [15]: inactive | MIC [15]: inactive | IC50 [16]: 27 µg/mL (≈ 88.2 µM) | MFC [16]: 50 µg/mL (≈ 163 µM) | MIC [16]: 50 µg/mL (≈ 163 µM) | Activity [29]: inactive | IC50 [18]: 27 µg/mL (≈ 88.2 µM) | MFC [18]: inactive | MIC [18]: inactive | Activity [30]: Non-toxic | IC50 [12]: 0.21 µg/mL (≈ 0.686 µM) | MFC [12]: 13 µg/mL (≈ 42.4 µM) | MIC [12]: 6.3 µg/mL (≈ 20.6 µM)

FC(F)(F)c1ccc(CSc2cc3ccccc3[n+](CCCCCC3CCCCC3)c2)cc1.[I-]
IC50 [13]: 2.9 µg/mL | MFC [13]: 5 µg/mL | MIC [13]: 5 µg/mL | IC50 [14]: 0.36 µg/mL | MBC [14]: 1.3 µg/mL | MIC [14]: 0.63 µg/mL | IC50 [15]: 1.4 µg/mL | MFC [15]: 2.5 µg/mL | MIC [15]: 2.5 µg/mL | IC50 [16]: 0.46 µg/mL | MFC [16]: 1.3 µg/mL | MIC [16]: 1.3 µg/mL | MBC [17]: 1.3 µg/mL | MIC [17]: 0.63 µg/mL | IC50 [17]: 0.28 µg/mL | IC50 [18]: 2.7 µg/mL | MFC [18]: 5 µg/mL | MIC [18]: 5 µg/mL | IC50 [19]: 4.7 µg/mL | MBC [19]: 10 µg/mL | MIC [19]: 10 µg/mL | MFC [12]: 0.31 µg/mL | MIC [12]: 0.31 µg/mL | CC50 at 48 h [20]: 7.9 µg/mL
